Test results from ChEMBL document CHEMBL4130413, “1-Aryl-1H- and 2-aryl-2H-1,2,3-triazole derivatives blockade P2X7 receptor in vitro and inflammatory response in vivo” (Eur J Med Chem, 2017).
Values belong to the compound of their own block, whether it stands above or below them. The source made the active and inactive calls. No cut-off for these calls is given here.

Tests used:
[1] = system: Mus musculus; test: Anti-inflammatory activity in Swiss mouse assessed as inhibition of LPS-induced protein extravasation in thoracic cavity at 100 mg/kg, ip pretreated for 1 hr followed by LPS stimulation and measured after 24 hrs; format: functional, organism-based
[2] = system: Mus musculus; test: Anti-inflammatory activity in Swiss mouse assessed as inhibition of LPS-induced pleural accumulation in eosiniphils at 100 mg/kg, ip pretreated for 1 hr followed by LPS stimulation and measured after 24 hrs by May-Grunwald-Giemsa staining-based Neubauer chamber based optical microscopy; format: functional, organism-based
[3] = n-Octanol/PBS distribution coefficient, log D of the compound at pH 7.4 at 25 mM after 2 hrs; format: physicochemical
[4] = system: Mus musculus; test: Anti-inflammatory activity in Swiss mouse assessed as inhibition of LPS-induced pleural accumulation in mononuclear cells at 1 to 100 ng/kg, ip pretreated for 1 hr followed by LPS stimulation and measured after 24 hrs by May-Grunwald-Giemsa staining-based Neubauer chamber based optical microscopy; format: functional, organism-based
[5] = system: Mus musculus; test: Anti-inflammatory activity in ip dosed Swiss Webster mouse assessed as inhibition of ATP-induced paw edema pretreated for 60 mins followed by ATP administration and measured after 30 mins; format: functional
[6] = target: T1, P2X purinoceptor 7 (Mus musculus, UniProt Q9Z1M0); test: Antagonist activity at P2X7 receptor in Swiss mouse peritoneal macrophages assessed as inhibition of BzATP-induced ethidium iodide uptake after 30 mins by spectrofluorometric analysis
T1 sequence (Q9Z1M0 whole entry): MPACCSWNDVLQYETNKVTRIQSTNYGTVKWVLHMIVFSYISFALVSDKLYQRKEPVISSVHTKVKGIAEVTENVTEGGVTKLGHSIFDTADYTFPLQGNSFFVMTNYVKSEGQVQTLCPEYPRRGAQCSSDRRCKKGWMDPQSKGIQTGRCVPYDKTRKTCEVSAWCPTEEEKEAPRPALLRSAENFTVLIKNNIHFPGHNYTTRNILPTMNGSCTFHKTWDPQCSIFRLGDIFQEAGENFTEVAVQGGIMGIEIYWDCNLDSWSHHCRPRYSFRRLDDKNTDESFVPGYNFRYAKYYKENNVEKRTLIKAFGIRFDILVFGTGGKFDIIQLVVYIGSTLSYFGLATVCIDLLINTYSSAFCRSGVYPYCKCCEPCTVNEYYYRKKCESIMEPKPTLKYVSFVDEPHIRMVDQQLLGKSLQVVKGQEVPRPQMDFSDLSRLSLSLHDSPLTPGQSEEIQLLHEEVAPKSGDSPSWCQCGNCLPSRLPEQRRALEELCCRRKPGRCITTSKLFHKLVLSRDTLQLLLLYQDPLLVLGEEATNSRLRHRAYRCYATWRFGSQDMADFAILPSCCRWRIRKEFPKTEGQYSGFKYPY

[7] = system: Mus musculus; test: Anti-inflammatory activity in Swiss mouse assessed as inhibition of LPS-induced nitric oxide production in pleural washes at 1 to 100 ng/kg, ip pretreated for 1 hr followed by LPS stimulation and measured after 24 hrs by Lowry/Griess analysis; format: functional, organism-based
[8] = Intrinsic clearance in mouse liver microsomes assessed per mg protein at 1 uM measured up to 45 mins; format: ADME, microsome; details: read-out: CLH
[9] = target: T2, P2X purinoceptor 7 (Mus musculus) (UniProt Q9Z1M0); test: Antagonist activity at mouse P2X7 receptor expressed in HEK293 cells assessed as inhibition of ATP-induced ethidium iodide uptake at 10 uM preincubated for 10 mins followed by ATP addition measured after 20 mins by FLIPR assay relative to 1 mM ATP; format: cell-based
T2 sequence (whole entry): T1 sequence (Q9Z1M0 whole entry)

[10] = system: Peritoneal macrophage; test: Toxicity in Swiss mouse peritoneal macrophages assessed as LDH release at 10 uM after 60 mins relative to 0.05% Triton X-100; format: cell-based; details: 1 h
[11] = target: T3, P2X purinoceptor 7 (Homo sapiens) (UniProt Q99572); test: Antagonist activity at human P2X7 receptor expressed in HEK293 cells assessed as inhibition of ATP-induced ethidium iodide uptake at 10 uM preincubated for 10 mins followed by ATP addition measured after 20 mins by FLIPR assay relative to 1 mM ATP; format: cell-based
T3 sequence (whole entry): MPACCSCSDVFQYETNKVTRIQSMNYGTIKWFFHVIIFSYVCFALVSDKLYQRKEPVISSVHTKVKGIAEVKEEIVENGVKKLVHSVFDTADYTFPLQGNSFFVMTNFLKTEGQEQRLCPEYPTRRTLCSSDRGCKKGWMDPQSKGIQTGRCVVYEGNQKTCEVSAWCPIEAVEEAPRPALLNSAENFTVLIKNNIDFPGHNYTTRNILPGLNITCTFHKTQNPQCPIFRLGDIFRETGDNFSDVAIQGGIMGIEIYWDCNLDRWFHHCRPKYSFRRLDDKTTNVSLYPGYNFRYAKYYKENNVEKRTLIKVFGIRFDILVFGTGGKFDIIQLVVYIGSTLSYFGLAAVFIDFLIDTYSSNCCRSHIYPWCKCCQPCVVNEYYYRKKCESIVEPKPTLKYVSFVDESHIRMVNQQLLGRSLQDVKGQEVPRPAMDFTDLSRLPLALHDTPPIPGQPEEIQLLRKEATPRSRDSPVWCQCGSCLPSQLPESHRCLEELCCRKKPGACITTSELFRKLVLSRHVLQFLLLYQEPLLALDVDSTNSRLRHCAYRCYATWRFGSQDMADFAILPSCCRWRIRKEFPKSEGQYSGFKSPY

[12] = Intrinsic clearance in human liver microsomes assessed per mg protein at 1 uM measured up to 45 mins; format: ADME, microsome; details: read-out: CLH
[13] = Apparent permeability across apical to basolateral side in human Caco2 cells at 100 uM after 60 mins by lucifer yellow dye-based fluorescence assay; format: ADME, cell-based; details: Caco-2
[14] = system: Mus musculus; test: Anti-inflammatory activity in ip dosed Swiss Webster mouse assessed as inhibition of carrageenan-induced paw edema pretreated for 60 mins followed by carrageenan administration and measured after 30 mins; format: functional
[15] = Kinetic solubility in pH 7.4 phosphate buffer at 1 to 250 uM after 2 hrs; format: physicochemical; details: read-out: Kinetic_solubility
[16] = Kinetic solubility in pH 2 hydrochloride buffer at 1 to 250 uM after 2 hrs; format: physicochemical; details: read-out: Kinetic_solubility
[17] = target: T1, P2X purinoceptor 7; test: Antagonist activity at P2X7 receptor in LPS/IFNc-differentiated Swiss mouse peritoneal macrophages assessed as inhibition of ATP-induced IL-1beta release preincubated for 30 mins followed by LPS stimulation for 4 hrs using cells treated with ATP for 30 mins by ELISA
[18] = system: Mus musculus; test: Anti-inflammatory activity in Swiss mouse assessed as inhibition of LPS-induced pleural accumulation in total leucocytes at 1 to 100 ng/kg, ip pretreated for 1 hr followed by LPS stimulation and measured after 24 hrs by May-Grunwald-Giemsa staining-based Neubauer chamber based optical microscopy; format: functional, organism-based
[19] = Cytotoxicity against Swiss mouse peritoneal macrophages after 24 hrs by LDH-release assay; format: cell-based, Peritoneal macrophage
[20] = target: P2X purinoceptor 7 (Mus musculus) (UniProt Q9Z1M0); test: Antagonist activity at P2X7 receptor in Swiss mouse peritoneal macrophages assessed as inhibition of ATP-induced propidium iodide uptake at 10 uM after 30 mins by FLIPR assay relative to 1 mM ATP

Compound: O=C(O)Cc1ccccc1Nc1c(Cl)cccc1Cl [DICLOFENAC]
- Activity [1]: inactive
- Activity [2]: inactive

- logD at 2 h, 25000 µM [3]: -1.96
- IC50 [6]: 59.2 nM
- microsomal CLint at 1 µM [8]: 22.2 µL/min/mg
- inhibition [9]: Active
- inhibition [11]: 96.9%
- microsomal CLint at 1 µM [12]: 30.2 µL/min/mg
- Papp A→B at 1 h, 100 µM [13]: 77.4 ×10⁻⁶ cm/s
- solubility kinetic at 2 h [15]: < 250 µM
- solubility kinetic at 2 h [16]: < 250 µM
- IC50 [17]: 91 nM
- inhibition [20]: 84.7%
Compound: CCOCc1cn(-c2ccc(Cl)cc2)nn1
- Activity [4]: Active
- ID50 [5]: 0.07984 µg/kg
- Activity [7]: Active
- Activity [10]: 8.33%
- Activity [14]: Dose-dependent effect
- ID50 [14]: 0.09435 µg/kg
- Activity [18]: Active
- CC50 at 24 h [19]: 4030 nM
